Results reported in patent US20250100963A1, “SULFONATED AND PHOSPHORYLATED AROMATIC MOLECULES” (Xavier University of Louisiana, priority 2023, published 2025).

Columns and labels:
CatG = target: T1, CatG (Homo sapiens, UniProt P08311); assay: Michaelis-Menten kinetics of chromogenic substrate (S-7388) hydrolysis by CatG; format: biochemical
T1 sequence (P08311 21-244): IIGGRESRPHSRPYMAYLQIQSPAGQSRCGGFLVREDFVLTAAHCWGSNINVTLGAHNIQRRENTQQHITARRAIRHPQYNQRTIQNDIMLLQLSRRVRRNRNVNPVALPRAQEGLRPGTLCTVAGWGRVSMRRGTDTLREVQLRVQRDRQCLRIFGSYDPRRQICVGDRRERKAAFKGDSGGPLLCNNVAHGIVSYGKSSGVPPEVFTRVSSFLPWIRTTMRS
Protocol: The initial rate of the hydrolysis of the chromogenic substrate by CatG was monitored from the linear increase in absorbance corresponding to less than 10% consumption of substrate at 37° C. in pH 7.4 20 mM Tris buffer containing 100 mM NaCl, 2.5 mM CaCl2, 0.1% PEG 8000 and 0.05% tween 80. The initial rate was measured at various substrate concentrations ([…]) at fixed enzyme concentration (30 nM), and fixed sulfonated compounds concentrations (0, 25, 50, 100, 200, 400, and 800 nM). The data were fitted by the Michaelis-Menten Equation (3) to determine the KM (substrate affinity) and VMAX (maximum reaction velocity).
To understand the mechanistic basis of inhibition, Michaelis-Menten kinetics of S-7388 hydrolysis by CatG was performed in the presence of inhibitor 2 at pH 7.4 and 37° C. […] Table 5 and FIG. 5.

Human FXIa = Human FXIa (Homo sapiens, UniProt P03951); assay: Direct inhibition of FXIa, chromogenic substrate hydrolysis assay; format: biochemical; conditions: Tris-HCl buffer
Chain of Human FXIa (P03951 388-625): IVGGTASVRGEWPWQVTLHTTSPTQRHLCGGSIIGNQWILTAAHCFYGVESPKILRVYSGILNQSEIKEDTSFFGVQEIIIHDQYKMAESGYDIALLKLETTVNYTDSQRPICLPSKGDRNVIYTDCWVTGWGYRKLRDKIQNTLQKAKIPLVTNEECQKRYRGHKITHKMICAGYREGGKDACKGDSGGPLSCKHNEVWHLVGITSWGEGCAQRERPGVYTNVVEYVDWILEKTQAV
Chain of Human FXIa (P03951 19-387 partner): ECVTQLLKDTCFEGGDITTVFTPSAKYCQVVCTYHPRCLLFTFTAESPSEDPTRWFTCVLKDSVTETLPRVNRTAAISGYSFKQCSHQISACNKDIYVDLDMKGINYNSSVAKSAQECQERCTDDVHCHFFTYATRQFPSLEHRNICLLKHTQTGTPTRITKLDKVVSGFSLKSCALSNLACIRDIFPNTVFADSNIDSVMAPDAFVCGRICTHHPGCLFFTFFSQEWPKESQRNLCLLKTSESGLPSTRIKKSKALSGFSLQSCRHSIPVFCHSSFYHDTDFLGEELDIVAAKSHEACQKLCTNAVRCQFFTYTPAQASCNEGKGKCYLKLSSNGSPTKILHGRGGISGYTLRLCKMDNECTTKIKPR
Protocol: Direct inhibitions of thrombin (FIIa), factor VIIa (FVIIa), factor IXa (FIXa), factor Xa (FXa), FXIa, factor XIIa (FXIIa), trypsin and chymotrypsin were evaluated using the corresponding chromogenic substrate hydrolysis assays as previously reported. Briefly, to each well of a 96-well microplate containing 85-185 μl of […] Tris buffer containing 100 mM NaCl, 2.5 mM CaCl2, 0.1% PEG 8000, and 0.05% tween 80 at 25 (thrombin) or 37° C. (FVIIa, FIXa, FXa, FXIa, FXIIa, chymotrypsin, and trypsin) were added 5 μl of enzyme (thrombin, FVIIa, FIXa, FXa, FXIa, FXIIa, chymotrypsin, and trypsin) and 5 μl of the inhibitor. Following an incubation period of 5 min, the appropriate chromogenic substrates (Spectrozyme TH, Spectrozyme FIXa, Spectrozyme FXa, S-2366, Spectrozyme FXIIa and S-2222) were added and the residual enzyme activity was measured from the initial rate of increase in absorbance at 405 nm. Relative residual enzyme activity as a function of the inhibitor concentration was fitted using Logistic Equation (1) to obtain the IC50 (potency), A Y % (efficacy) of enzyme inhibition, and HS (Hill slope). The concentrations of enzymes and substrates in microplate cells were: 6 nM and 50 μM for thrombin; 1.09 nM and 125 μM for FXa; 5 nM and 125 μM for FXIIa; 89 nM and 850 μM for FIXa; 8 nM and 1000 µM for FVIIa (along with 40 nM recombinant tissue factor); 72.5 ng/ml and 80 μM for bovine trypsin; and 500 ng/ml and 240 μM for bovine chymotrypsin.

Decrease of VMAX, absence of inhibitor vs 800 nM (CatG; 0 vs 800 nM inhibitor): ~3 fold
Km (CatG; Formula II 40 nM): 1200 ± 300 µM
Vmax (CatG; Formula II 40 nM): 26.1 ± 2.5 mAU/min
Km (CatG; Formula II 100 nM): 1290 ± 190 µM
Vmax (CatG; Formula II 100 nM): 17.6 ± 1.1 mAU/min
Km (CatG; Formula II 400 nM): 1400 ± 220 µM
Vmax (CatG; Formula II 400 nM): 11.4 ± 0.8 mAU/min
Km (CatG; Formula II 800 nM): 1320 ± 207 µM
Vmax (CatG; Formula II 800 nM): 10.6 ± 0.95 mAU/min
Vmax (CatG; Formula II 800 nM, listed as inhibitor 2): 10.6±0.95 mAU/min
KM for S-7388 in the presence or absence of inhibitor (CatG; inhibitor 0-800 nM, pH 7.4, 37° C.): essentially unchanged
IC50 (Human FXIa): > 500 µM
SMILES: O=C(Nc1cc(C(=O)Nc2ccc(S(=O)(=O)O)cc2S(=O)(=O)O)cc(C(=O)Nc2ccc(S(=O)(=O)O)cc2S(=O)(=O)O)c1)Nc1cc(C(=O)Nc2ccc(S(=O)(=O)O)cc2S(=O)(=O)O)cc(C(=O)Nc2ccc(S(=O)(=O)O)cc2S(=O)(=O)O)c1 [Formula II, 4,4′,4″,4′-((5,5′-(carbonylbis(azanediyl))bis(isophthaloyl))tetrakis(azanediyl))tetrakis(benzene-1,3-disulfonic acid)]
